In patent US20240415790A1, “A COMPOSITION FOR USE IN THE TREATMENT OF INTERVERTEBRAL DISC HERNIATION” (STAYBLE THERAPEUTICS AB, priority 2020, published 2024):
Values joined by “and” are separate entries in the source; they are usually repeats but may differ in a detail not shown here. Equal entries are not always repeated.

Experiments:
porcine NP and AF = assay: Macroscopic and histological evaluation of porcine IVD after intradiscal or external LA (series 1 and 2); format: in vivo; conditions: pig
Protocol: The pigs were placed on the right side. A 6 cm long incision was made from the costal arch to the iliac crest, just lateral to the lateral processes. The lumbar IVDs were approached by a retroperitoneal technique. The L3/4 IVD was incised and 0.2 mL of the LA-formulation (n=6) or the placebo (n=2) was injected under fluoroscopic guidance. The LA-formulation was composed of LA (120 mg/mL) and iohexol (180 mg I/mL) while placebo consisted of iohexol only. The concentration was determined based on the pilot experiments on the effects of LA on collagen secretion from human NP cells (as described in WO 2017/046030). In this set of in vivo experiments, the pH of the placebo formulation was adjusted to the same as the active formulation (about 1.5) using hydrochloric acid. The adjacent IVDs were not injected and served as negative controls. The volume of the pig NP is about 1 mL and it was estimated that 0.2 mL would be an appropriate injection volume. The height and width of normally appearing NP (FIG. 6a) in the anteroposterior (short vertical double arrow) and bilateral (short horizontal double arrow) directions, respectively, were measured and expressed in relation to the height (long vertical double arrow), and width (long horizontal double arrow) of the IVD. […] The group data for NP height as percent of total IVD height are shown in FIG. 7 and the corresponding data for NP width are illustrated in FIG. 8. Further, the IVD was cut in half and photographed. The bilateral width and anteroposterior height of normally appearing NP was measured and expressed as percent of the total IVD width and height, respectively, as depicted in FIGS. 7 and 8. The aim of the second series (including 16 pigs) was to assess the safety and efficacy of the treatment and was part of the regulatory documentation required by the Swedish Medical Products Agency to initiate studies in humans. All procedures were as described above, with the following exceptions. […] In one group of animals, LA or placebo was applied onto the IVD outside the spinal foramen (external application) to assess any tissue damage resulting from leakage from the IVD or a misdirected injection. Due to this experimental design, spinal flexural stiffness was not measured in these pigs. The only other difference between the two series was that exposed tissues were evaluated histologically in the second but not first series. The lumbar spine was removed en bloc and any pathological changes were assessed macroscopically and photographed in extradiscal tissue onto which LA had been applied. Specimens of spinal nerves and muscle tissue were collected, fixed in 10% formalin, and processed for microscopy with hematoxylin/eosin staining. Injected IVDs were cut in half, inspected macroscopically, and photographed. Samples of the IVD were collected and processed for microscopy with hematoxylin/eosin. These turned out to include AF but very little NP so in order to obtain an improved overview of the IVD, the IVDs with adhering vertebrae were decalcified to enable preparation of axial sections of the whole IVD which were stained with Massons's trichrome. FIG. 9 illustrates effects of LA on the AF (A,B) and NP (C-J). LA or placebo (0.2 mL) was injected into IVDs of anesthetized pigs. The animals were sacrificed 4 or 12 weeks post injection and the IVDs were sectioned in half. After fixation in 10% formalin, decalcification and paraffin embedding, sections were cut at 5 μm and stained with hematoxylin&eosin (A,B) or Masson's trichrome (C-J). Fibrocartilagenous cells can be seen in the AF from untreated IVDs (arrows in A) but frequently, multicellular chondrons appeared after injection of LA (240 mg/mL, 12 weeks survival; arrows in B). NP of an untreated (extradiscal injection) IVD (C) consists of islets of notochordal cells (asterisk) embedded in weakly stained extracellular matrix. In LA-treated NP, collagenous fibers can be seen (asterisks in D; 120 mg/mL LA, 4 weeks survival and E; 120 mg/mL LA, 12 weeks survival). […]

[1] = test system: NP and disc height of patients' IVDs; assay: Clinical study, T2-weighted MRI of NP intensity and disc height; format: in vivo, human; set-up: key to Individual scoring of change in NP intensity, Assessor No. 1 / Individual scoring of change in NP intensity, Assessor No. 2 / Individual scoring of change in NP intensity, Assessor No. 3 / Individual scoring of change in NP intensity, Assessor No. 4: 1, clear reduction; 0, no change; conditions: for NP intensity change score at T2-weighted MR imaging, Mean ± SD: score 1 clear reduction, 0 no change, 4 assessors
Protocol: The study was a randomized, double-blinded, placebo-controlled, single ascending dose study with the primary objective to evaluate safety and tolerability following intradiscal injection of LA in Omnipaque or placebo (Omnipaque) in 15 patients with chronic discogenic low back pain. The secondary objective was to assess effects on the NP and disc height using T2-weighted MRI.
All MRI investigations were performed using the same scanner (Siemens 1.5 T Avanto) with the following exceptions: Baseline MRI for one placebo-treated patient and 2 patients given the high dose was acquired in a Siemens Symphony 1.5 T scanner while all other scans were done in the Siemens 1.5 T Avanto scanner. Also, baseline and 3 month MRI were done in the Symphony scanner while the other scans were done in the Avanto scanner in 2 placebo-treated patients and one patient treated with the high dose. T1- and T2-weighted sagittal, coronal, and transversal sections were acquired at 4 mm before and after injection of gadolinium contrast.
Disc height measured as the maximal distance between 2 adjacent endplates and Pfirrmann grade were documented at screening and they were followed throughout the study. Since the Pfirrmann criteria are not sensitive enough to detect minor changes in disc hydration, changes in intensity of the NP at T2-weighted MRI were scored by 4 assessors blind to the group assignment of the patients. The assessors were instructed to score no change as “0” and obvious reduction in intensity as “1”, regardless of time after treatment.
Changes in intensity of the NP at T2-weighted MR imaging were scored as 1, clear reduction and 0, no change. The scoring was done by 4 assessors blind to the group assignment of the patients. Reductions in disc height were observed throughout the study (Table 8).

[2] = LA concentration 30, individual patients and IVDs
[3] = LA concentration 60, individual patients and IVDs
[4] = LA concentration 120, individual patients and IVDs

`CC(O)C(=O)O` (stereo not shown) [LA, lactic acid] was tested, and the “Fibrotic changes at sites of extradiscal administration” value (porcine NP and AF; 28-day follow-up, external 120 mg/mL) was “No fibrotic changes”, the “Histological changes of the NP” value (porcine NP and AF; 28-day follow-up, intradiscal 120 or 240 mg/mL) was “Dense bundles of fibrotic tissue” and the “NP size (macroscopic)” value (porcine NP and AF; 28 and 84 days after LA treatment vs normally appearing NP) was “reduction in NP size”. The “Histological changes of the NP” value (porcine NP and AF; 84-day follow-up, intradiscal 120 or 240 mg/mL) was “sclerosis (FIG. 9D-J), cystic degeneration (FIG. 9J), cartilaginous metaplasia (FIG. 9F, 9G), osteoid islands (FIG. 9F, 9G) and reduction in the extracellular matrix”, the “Histological changes of the NP” value (porcine NP and AF; two days after intradiscal injection) was “marked histological changes characterized by lysis of the extracellular matrix” and the “Hemorrhage and inflammatory changes, LA vs vehicle” value (porcine NP and AF; two-day follow up, intradiscal injection) was “not obviously more marked”. For the same compound, the “NP intensity change score, Median” value ([1]; LA 30 mg/mL) was 0, the “Disc height change from baseline (mm) Mean ± SD” value ([1]; LA 30 mg/mL, 3 months) was 0.3 ± 1.3 mm and the “Disc height change from baseline (mm) Mean ± SD” value ([1]; LA 30 mg/mL, 6 months) was −0.5 ± 0.7 mm. The “Disc height change from baseline (mm) Mean ± SD” value ([1]; LA 30 mg/mL, 12 months) was −0.5 ± 0.7 mm, the “NP intensity change score at T2-weighted MR imaging, Mean ± SD” value (shortened to “NP intensity change score … Mean ± SD”) ([1]; LA 30 mg/mL) was 0.4 ± 0.5 and the “NP intensity change score, Median” value ([1]; LA 60 mg/mL) was 1. For the same compound, the “Disc height change from baseline (mm) Mean ± SD” value ([1]; LA 60 mg/mL, 3 months) was −1.0 ± 0.7 mm, the “Disc height change from baseline (mm) Mean ± SD” value ([1]; LA 60 mg/mL, 6 months) was −0.8 ± 0.8 mm and the “Disc height change from baseline (mm) Mean ± SD” value ([1]; LA 60 mg/mL, 12 months) was −1.2 ± 0.8 mm. For the same compound, the “NP intensity change score … Mean ± SD” value ([1]; LA 60 mg/mL) was 1.0 ± 0.0, the “NP intensity change score, Median” value ([1]; LA 120 mg/mL) was 1 and the “Disc height change from baseline (mm) Mean ± SD” value ([1]; LA 120 mg/mL, 3 months) was −1.2 ± 1.1 mm. For the same compound, the “Disc height change from baseline (mm) Mean ± SD” value ([1]; LA 120 mg/mL, 6 months) was −1.4 ± 1.1 mm, the “Disc height change from baseline (mm) Mean ± SD” value ([1]; LA 120 mg/mL, 12 months) was −1.8 ± 1.3 mm and the “NP intensity change score … Mean ± SD” value ([1]; LA 120 mg/mL) was 0.9 ± 0.3. The “Individual scoring of change in NP intensity, Assessor No. 1” value [1, 2] was 0 (2×) and 1 (2×), the “Individual scoring of change in NP intensity, Assessor No. 2” value [1, 2] was 0 (3×) and 1 and the “Individual scoring of change in NP intensity, Assessor No. 3” value [1, 2] was 0 (2×) and 1 (2×). The “Individual scoring of change in NP intensity, Assessor No. 4” value [1, 2] was 0 (2×) and 1 (2×), the “Individual scoring of change in NP intensity, Assessor No. 1” value [1, 3] was 1 and the “Individual scoring of change in NP intensity, Assessor No. 2” value [1, 3] was 1. For the same compound, the “Individual scoring of change in NP intensity, Assessor No. 3” value [1, 3] was 1, the “Individual scoring of change in NP intensity, Assessor No. 4” value [1, 3] was 1 and the “Individual scoring of change in NP intensity, Assessor No. 1” value [1, 4] was 1. For the same compound, the “Individual scoring of change in NP intensity, Assessor No. 2” value [1, 4] was 1 (3×) and 0 (2×), the “Individual scoring of change in NP intensity, Assessor No. 3” value [1, 4] was 1 and the “Individual scoring of change in NP intensity, Assessor No. 4” value [1, 4] was 1. For the same compound, the “% decrease in disc height” value ([1]; lactic acid 30 mg/mL, 3 months) was “+3%”, the “% decrease in disc height” value ([1]; lactic acid 30 mg/mL, 6 months) was 5% and the “% decrease in disc height” value ([1]; lactic acid 30 mg/mL, 12 months) was 5%. The “% decrease in disc height” value ([1]; lactic acid 60 mg/mL, 3 months) was 11%, the “% decrease in disc height” value ([1]; lactic acid 60 mg/mL, 6 months) was 8% and the “% decrease in disc height” value ([1]; lactic acid 60 mg/mL, 12 months) was 13%. The “% decrease in disc height” value ([1]; lactic acid 120 mg/mL, 3 months) was 11%, the “% decrease in disc height” value ([1]; lactic acid 120 mg/mL, 6 months) was 12% and the “% decrease in disc height” value ([1]; lactic acid 120 mg/mL, 12 months) was 16%. For the same compound, the “Change in IVD width” value ([1]; patients, after treatment (not shown)) was “no change in IVD width”.
